Key:
[1] = Plasma stability assay, mouse plasma; assay type: in vitro ADME; settings: for % compound remaining at last time-point, plasma: 2.0 μM, 120 min; for half-life at 2 μM: n ≥ 3, read-out: plasma t1/2
Description: 10 mM DMSO stock solution of test compound (39 or 50) was diluted 50-fold with DMSO/H2O (1:1) and incubated at 37 °C for 2 h with mouse or rat plasma added with 5% DMSO (preheated at 37 °C for 10 min). The final compound’s concentration was 2.0 μM. At each time point (0, 5, 15, 30, 60, and 120 min), 50 μL of incubation mixture was diluted with 150 μL cold CH3CN spiked with 200 nM of warfarin, as the internal standard, followed by centrifugation at 3.270g for 20 min. The supernatant was further diluted with H2O (1:1) and analyzed by LC–MS/MS on a Waters ACQUITY UPLC-MS TQD system consisting of a triple quadrupole detector (TQD) mass spectrometer equipped with an electrospray ionization interface and a photodiode array eλ detector (PDA) from Waters Inc. (Milford, MA, USA). Electrospray ionization was applied in positive mode. Compound-dependent parameters as MRM transitions and collision energy were developed for each compound. The analyses were run on an ACQUITY UPLC BEH C18 (50 × 2.1 mm ID, particle size 1.7 μm) with a VanGuard BEH C18 precolumn (5 × 2.1 mm ID, particle size 1.7 μm) at 40 °C, using H2O + 0.1% HCOOH (A) and CH3CN + 0.1% HCOOH (B) as the mobile phase. The percentage of the test compound remaining at each time point relative to t = 0 was calculated by the response factor on the basis of the internal standard peak area. The percentage of test compound versus time was plotted and fitted by GraphPad Prism (GraphPad Software, Version 5 for Windows, CA, USA, www.graphpad.com) to estimate the compound’s half-life (t1/2), which was reported as mean value along with the standard deviation (n = 3).

[2] = Liver microsomal stability assay (NADPH), human; assay type: in vitro ADME; settings: for % compound remaining at last time-point, LM_NADPH: human liver microsomes, 4.6 μM, 60 min; for half-life at 4.6 μM: male, pH 7.5, human liver microsomes, read-out: LM_NADPH t1/2
Description: Pooled CD1 mouse (M1000, male), IGS Sprague-Dawley rat (R1000, male), and human (H1000, male) liver microsomes were purchased from SEKISUI XenoTech. 10 mM DMSO stock solution of the test compound (39 or 50) was preincubated at 37 °C for 15 min with mouse, rat, or human liver microsomes in 0.1 M Tris-HCl buffer (pH 7.5) with 10% DMSO. The final concentration was 4.6 μM. After preincubation, the cofactor (NADPH) was added to the incubation mixture, and the incubation was continued at 37 °C for 1 h. At each time point (0, 5, 15, 30, and 60 min), 30 μL of incubation mixture was diluted with 200 μL cold CH3CN spiked with 200 nM of an appropriate internal standard, followed by centrifugation at 3.270g for 15 min. The supernatant was further diluted with H2O (1:1) for analysis. A reference incubation mixture of each specie (microsomes without cofactors) was prepared for each test compound and analyzed at t = 0 and 60 min in order to verify the compound stability in the matrix. The two time points were diluted as for the time points of the incubation mixture above. The supernatants were analyzed by LC–MS/MS on a Waters ACQUITY UPLC-MS TQD system consisting of a triple quadrupole detector (TQD) mass spectrometer equipped with an electrospray ionization interface and a photodiode array eλ detector (PDA) from Waters Inc. (Milford, MA, USA). Electrospray ionization was applied in positive mode. Compound-dependent parameters as MRM transitions and collision energy were developed for each compound. The analyses were run on an ACQUITY UPLC BEH C18 (50 × 2.1 mm ID, particle size 1.7 μm) with a VanGuard BEH C18 precolumn (5 × 2.1 mm ID, particle size 1.7 μm) at 40 °C, using H2O + 0.1% HCOOH (A) and CH3CN + 0.1% HCOOH (B) as the mobile phase. The percentage of test compound remaining at each time point relative to t = 0 was calculated by the response factor on the basis of the internal standard peak area. The percentage of test compound versus time was plotted and fitted by GraphPad Prism (GraphPad Software, Version 5 for Windows, CA, USA, www.graphpad.com) to estimate the compound’s half-life (t1/2), which was reported as mean value along with the standard deviation (n = 3).

[3] = Aqueous kinetic solubility assay; assay type: physicochemical; settings: PBS buffer, pH 7.4, n = 3
Description: The aqueous kinetic solubility was determined from a 10 mM DMSO stock solution of test compound (39 or 50) in PBS buffer at pH 7.4. The study was performed by incubating an aliquot of 10 mM DMSO stock solution in PBS (pH 7.4) to a target concentration of 250 μM (2.5% DMSO). The incubation was carried out under shaking at 25 °C for 24 h, followed by centrifugation at 21,100g for 30 min. The supernatant was further diluted (4:1) with CH3CN, and the dissolved test compound was quantified by UV at 215 nm on a Waters ACQUITY UPLC-MS system consisting of a single quadrupole detector (SQD) mass spectrometer equipped with an electrospray ionization interface and a photodiode array detector (PDA) from Waters Inc. (Milford, MA, USA). Electrospray ionization in positive mode was used in the mass scan range 100–500 Da. The PDA range was 210–400 nm. The analyses were run on an ACQUITY UPLC BEH C18 column (50 × 2.1 mm ID, particle size 1.7 μm) with a VanGuard BEH C18 precolumn (5 × 2.1 mm ID, particle size 1.7 μm), using 10 mM NH4OAc in H2O at pH 5 adjusted with AcOH (A) and 10 mM NH4OAc in CN–H2O (95:5) at pH 5 (B) as the mobile phase.

Row | Compound | % compound remaining at last time-point, plasma [1] [%] | half-life at 2 μM [1] [h] | % compound remaining at last time-point, LM_NADPH [2] [%] | half-life at 4.6 μM [2] [h] | solubility kinetic at 24 h [3] [µM]
1 | CCCCc1ccc(O[C@H]2C[C@H]3CC[C@@H](C2)N3S(=O)(=O)c2c(C)n[nH]c2C)cc1 [Compound 39, (1R,3r,5S)-3-(4-Butylphenoxy)-8-((3,5-dimethyl-1H-pyrazol-4-yl)sulfonyl)-8-azabicyclo[3.2.1]octane] | 93 | > 2 | 83 | > 1 | < 1
2 | CCOCc1cnc(O[C@H]2C[C@H]3CC[C@@H](C2)N3S(=O)(=O)c2c(C)n[nH]c2C)cn1 [Compound 50, (1R,3r,5S)-8-((3,5-Dimethyl-1H-pyrazol-4-yl)sulfonyl)-3-((5-(ethoxymethyl)pyrazin-2-yl)oxy)-8-azabicyclo[3.2.1]octane] | 95 | > 2 | 88 | > 1 | > 250

Reference: article PMC8474119, “Discovery and SAR Evolution of Pyrazole Azabicyclo[3.2.1]octane Sulfonamides as a Novel Class of Non-Covalent N-Acylethanolamine-Hydrolyzing Acid Amidase (NAAA) Inhibitors for Oral Administration” (Journal of Medicinal Chemistry, 2021)
